Measured values: ChEMBL document CHEMBL6078662, “Discovery of 3-(2-aminobenzo[d]thiazol-5-yl) benzamide derivatives as potent anticancer agents via ROR1 inhibition” (Bioorg Med Chem, 2025)
Active and inactive are the calls of the source. The rule behind the calls is not given here.

Assays:
NCI-H1975 [1] = assay: Antiproliferative activity against human NCI-H1975 cells assessed as inhibition of cell proliferation incubated for 72 hrs by MTT assay; format: functional, cell-based; conditions: for IC50: NCI-H1975, 72 h
A549 = assay: Antiproliferative activity against human A549 cells assessed as inhibition of cell proliferation incubated for 72 hrs by MTT assay; format: functional, cell-based; conditions: for IC50: A549, 72 h
[2] = Selectivity index, ratio of IC50 for cytotoxicity against human MRC5 cells assessed as inhibition of cell proliferation to IC50 for antiproliferative activity against human NCI-H1975 cells assessed as inhibition of cell proliferation; format: toxicity, cell-based; conditions: MRC5 cells and NCI-H1975 cells, read-out: Ratio IC50
[3] = Cytotoxicity against human MRC5 cells assessed as inhibition of cell proliferation incubated for 72 hrs by MTT assay; format: toxicity, cell-based
PC-9 = assay: Antiproliferative activity against human PC-9 cells assessed as inhibition of cell proliferation incubated for 72 hrs by MTT assay; format: functional, cell-based; conditions: for IC50: PC-9, 72 h
NCI-H1975 [4] = assay: Inhibition of colony formation in human NCI-H1975 cells assessed as decrease in number of colonies incubated for 72 hrs by crystal violet staining based assay; format: functional, cell-based; conditions: dose 1.75-7 µM
NCI-H1975 [5] = assay: Effect on Vimentin expression level in human NCI-H1975 cells incubated for 48 hrs by Western blot analysis; format: functional, cell-based; conditions: dose <= 7.0 µM
[6] = molecular target: Inactive tyrosine-protein kinase transmembrane receptor ROR1 (Homo sapiens) (UniProt Q01973); assay: Binding affinity to ROR1 in human NCI-H1975 cells assessed as increase in thermal stability at 10 uM at 57 to 62 degreeC incubated for 4 hrs by CETSA analysis; format: cell-based
Chain of Inactive tyrosine-protein kinase transmembrane receptor ROR1 (Homo sapiens) (Q01973 whole entry): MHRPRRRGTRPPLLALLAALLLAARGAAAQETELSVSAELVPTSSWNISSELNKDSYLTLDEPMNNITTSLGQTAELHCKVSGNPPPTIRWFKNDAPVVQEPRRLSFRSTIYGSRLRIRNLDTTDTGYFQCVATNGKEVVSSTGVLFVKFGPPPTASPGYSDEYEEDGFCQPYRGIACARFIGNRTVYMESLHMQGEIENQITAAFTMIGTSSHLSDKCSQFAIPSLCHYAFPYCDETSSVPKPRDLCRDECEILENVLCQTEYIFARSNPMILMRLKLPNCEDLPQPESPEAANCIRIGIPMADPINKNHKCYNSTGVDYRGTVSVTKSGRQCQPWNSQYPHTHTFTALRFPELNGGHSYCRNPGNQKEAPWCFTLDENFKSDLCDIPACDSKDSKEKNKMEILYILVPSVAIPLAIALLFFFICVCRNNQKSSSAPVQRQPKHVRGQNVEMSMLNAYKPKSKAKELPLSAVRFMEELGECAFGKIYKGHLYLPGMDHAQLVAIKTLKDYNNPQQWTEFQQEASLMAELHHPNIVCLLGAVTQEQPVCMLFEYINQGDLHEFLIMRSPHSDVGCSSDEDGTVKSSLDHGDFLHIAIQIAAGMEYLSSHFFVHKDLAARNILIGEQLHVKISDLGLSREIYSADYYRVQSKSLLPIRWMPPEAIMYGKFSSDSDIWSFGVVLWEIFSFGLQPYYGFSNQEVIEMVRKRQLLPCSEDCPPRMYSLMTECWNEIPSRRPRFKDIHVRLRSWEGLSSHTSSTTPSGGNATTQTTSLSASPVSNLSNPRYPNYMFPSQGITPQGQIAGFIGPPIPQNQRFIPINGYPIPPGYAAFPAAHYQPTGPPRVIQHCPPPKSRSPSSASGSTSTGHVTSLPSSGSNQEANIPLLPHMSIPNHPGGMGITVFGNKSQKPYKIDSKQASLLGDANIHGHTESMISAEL

NCI-H1975 [7] = assay: Induction of cell cycle arrest in human NCI-H1975 cells assessed as decrease in accumulation of cells at G2/M phase incubated for 24 hrs by PI staining based flow cytometry analysis; format: functional; conditions: dose 1.75-7 µM
NCI-H1975 [8] = assay: Induction of cell cycle arrest in human NCI-H1975 cells assessed as reduction in CDK2 expression incubated for 24 hrs by Western blot analysis; format: functional, cell-based; conditions: dose 1.75-7 µM
[9] = MRT (0 to infinity) in male Sprague-Dawley rat at 10 mg/kg, po measured upto 24 hrs by LC-MS/MS analysis; format: ADME, organism-based; conditions: in vivo
[10] = Half life in male Sprague-Dawley rat at 10 mg/kg, po measured upto 24 hrs by LC-MS/MS analysis; format: ADME, organism-based; conditions: in vivo
NCI-H1975 [11] = assay: Effect on N-cadherin expression level in human NCI-H1975 cells incubated for 48 hrs by Western blot analysis; format: functional, cell-based; conditions: dose <= 7.0 µM
NCI-H1975 [12] = assay: Anti-invasive activity against human NCI-H1975 cells assessed as reduction in number of invaded cells at 7 uM incubated for 24 hrs by crystal violet staining based light microscopic analysis; format: functional, cell-based
[13] = Cmax in male Sprague-Dawley rat at 10 mg/kg, po measured upto 24 hrs by LC-MS/MS analysis; format: ADME, organism-based; conditions: in vivo
NCI-H1975 [14] = assay: Inhibition of cell migration in human NCI-H1975 cells assessed as inhibition of wound closure at 1.75 to 7 uM by wound healing assay; format: functional, cell-based; conditions: dose 1.75-7 µM, time 24-48 hrs
NCI-H1975 [15] = assay: Antiproliferative activity against human NCI-H1975 cells assessed as suppression of cell growth incubated for 72 hrs by MTT assay; format: functional, cell-based; conditions: dose 7.0 µM
[16] = molecular target: Inactive tyrosine-protein kinase transmembrane receptor ROR1 (Homo sapiens) (UniProt Q01973); assay: Inhibition of ROR1 phosphorylation in human NCI-H1975 cells upto 7 uM incubated for 48 hrs by Western blot analysis; format: cell-based
NCI-H1975 [17] = assay: Inhibition of cell migration in human NCI-H1975 cells assessed as inhibition of wound closure measured at 24 to 48 hrs by wound healing assay; format: functional, cell-based; conditions: dose 1.75-7 µM, time 24-48 hrs
NCI-H1975 [18] = assay: Effect on MMP2 expression level in human NCI-H1975 cells incubated for 48 hrs by Western blot analysis; format: functional, cell-based; conditions: dose <= 7.0 µM
NCI-H1975 [19] = assay: Effect on ZEB1 expression level in human NCI-H1975 cells incubated for 48 hrs by Western blot analysis; format: functional, cell-based; conditions: dose <= 7.0 µM
[20] = AUC (0 to infinity) in male Sprague-Dawley rat at 10 mg/kg, po measured upto 24 hrs by LC-MS/MS analysis; format: ADME, organism-based; conditions: in vivo
[21] = molecular target: MAP kinase p38 (Homo sapiens) (UniProt O15264+Q15759+Q16539+P53778); assay: Inhibition of p38 phosphorylation in human NCI-H1975 cells upto 7 uM incubated for 48 hrs by Western blot analysis; format: cell-based
NCI-H1975 [22] = assay: Induction of cell cycle arrest in human NCI-H1975 cells assessed as reduction in cyclin-D1 expression incubated for 24 hrs by Western blot analysis; format: functional, cell-based; conditions: dose 1.75-7 µM
NCI-H1975 [23] = assay: Induction of cell cycle arrest in human NCI-H1975 cells assessed as reduction in c-Myc expression incubated for 24 hrs by Western blot analysis; format: functional, cell-based; conditions: dose 1.75-7 µM
[24] = Tmax in male Sprague-Dawley rat at 10 mg/kg, po measured upto 24 hrs by LC-MS/MS analysis; format: ADME, organism-based; conditions: in vivo
NCI-H1975 [25] = assay: Inhibition of SRC phosphorylation in human NCI-H1975 cells upto 7 uM incubated for 48 hrs by Western blot analysis; format: cell-based
[26] = molecular target: Inactive tyrosine-protein kinase transmembrane receptor ROR1 (Homo sapiens) (UniProt Q01973); assay: Binding affinity to ROR1 in human NCI-H1975 cells assessed as protection of pronase-mediated protein degradation preincubated with compound for 1 hr followed by pronase E addition and measured after 10 mins by DARTS assay; format: cell-based; conditions: dose <= 100.0 µM, time 70.0 min
NCI-H1975 [27] = assay: Inhibition of cell migration in human NCI-H1975 cells assessed as inhibition of wound closure at 1.75 to 7 uM measured at 24 to 48 hrs by wound healing assay; format: functional, cell-based; conditions: dose 1.75-7 µM, time 24-48 hrs
NCI-H1975 [28] = assay: Induction of cell cycle arrest in human NCI-H1975 cells assessed as accumulation of cells at G1 phase incubated for 24 hrs by PI staining based flow cytometry analysis; format: functional; conditions: dose 1.75-7 µM
NCI-H1975 [29] = assay: Effect on E-cadherin expression level in human NCI-H1975 cells incubated for 48 hrs by Western blot analysis; format: functional, cell-based; conditions: dose <= 7.0 µM

With `CNc1cccc(NC(=O)c2ccc(C)c(C#Cc3cnc4cccnn34)c2)c1` the IC50 (NCI-H1975 [1]) was 66.7 µM and the IC50 (A549) was 27.5 µM.
For `COCCNC(=O)c1cccc(-c2ccc3sc(NC(=O)c4ccccc4)nc3c2)c1`, the selectivity ratio [2] was over 4.52, the IC50 (NCI-H1975 [1]) was 17.7 µM and the IC50 at 72 h [3] was over 80 µM. The IC50 (PC-9) was over 40 µM and the IC50 (A549) was over 40 µM.
In the case of `CCC(=O)Nc1nc2cc(-c3cccc(C(=O)NCC4CC4)c3)ccc2s1`, the IC50 (NCI-H1975 [1]) is reported as over 40 µM, the IC50 at 72 h [3] is reported as over 80 µM and the IC50 (PC-9) is reported as over 40 µM. For the same compound, the IC50 (A549) was over 40 µM.
In the case of `CCC(=O)Nc1nc2cc(-c3cccc(C(=O)NCc4ccc(OC)cc4)c3)ccc2s1`, the IC50 (NCI-H1975 [1]) is reported as over 40 µM, the IC50 at 72 h [3] is reported as over 80 µM and the IC50 (PC-9) is reported as over 40 µM. The IC50 (A549) was over 40 µM.
`CC(=O)Nc1nc2cc(-c3cccc(C(=O)NCCC(C)C)c3)ccc2s1` showed an IC50 (NCI-H1975 [1]) of over 40 µM, an IC50 at 72 h [3] of over 80 µM and an IC50 (PC-9) of 24.7 µM. The IC50 (A549) was over 40 µM.
`CC(C)(C)C(=O)Nc1nc2cc(-c3cccc(C(=O)NCC4CC4)c3)ccc2s1` gave an IC50 (NCI-H1975 [1]) of over 40 µM, an IC50 at 72 h [3] of over 80 µM and an IC50 (PC-9) of 21.8 µM. It also gave an IC50 (A549) of 27.6 µM.
`CCC(=O)Nc1nc2cc(-c3cccc(C(=O)NCCOC)c3)ccc2s1` gave an IC50 (NCI-H1975 [1]) of over 40 µM, an IC50 at 72 h [3] of over 80 µM and an IC50 (PC-9) of over 40 µM. For the same compound, the IC50 (A549) was over 40 µM.
With `CC(C)CCNC(=O)c1cccc(-c2ccc3sc(NC(=O)c4ccc(F)cc4)nc3c2)c1` the selectivity ratio [2] was over 22.9, the IC50 (NCI-H1975 [1]) was 3.5 µM and the Activity (NCI-H1975 [1]; dose <= 40.0 µM) was “Dose-dependent-effect”. The inhibition (NCI-H1975 [4]) was “Dose-dependent-effect”, the Activity (NCI-H1975 [5]) was “Dose-dependent-effect” and the Activity [6] was “Active”. The Activity (NCI-H1975 [7]) was “Dose-dependent-effect”, the Activity (NCI-H1975 [8]) was “Dose-dependent-effect” and the IC50 at 72 h [3] was over 80 µM. The MRT inf [9] was 18.7 h, the half-life [10] was 10 h and the Activity (NCI-H1975 [11]) was “Dose-dependent-effect”. The Activity (NCI-H1975 [12]) was “Active”, the Cmax [13] was 1120 ng/mL and the inhibition (NCI-H1975 [14]) was “Time-dependent-effect”. For the same compound, the Activity (NCI-H1975 [15]) was “Dose-dependent-effect”, the inhibition [16] was “Active” and the inhibition (NCI-H1975 [17]) was “Dose-dependent-effect”. The IC50 (PC-9) was 8.11 µM, the Activity (PC-9; dose <= 40.0 µM) was “Dose-dependent-effect” and the IC50 (A549) was 18.2 µM. For the same compound, the Activity (A549; dose <= 40.0 µM) was “Dose-dependent-effect”, the Activity (NCI-H1975 [18]) was “Dose-dependent-effect” and the Activity (NCI-H1975 [19]) was “Dose-dependent-effect”. The AUC(0-inf) [20] was 12400 ng·h/mL, the inhibition [21] was “Active” and the Activity (NCI-H1975 [22]) was “Dose-dependent-effect”. For the same compound, the Activity (NCI-H1975 [23]) was “Dose-dependent-effect”, the Tmax [24] was 2 h and the inhibition (NCI-H1975 [25]) was “Active”. For the same compound, the Activity [26] was “Dose-dependent-effect”, the inhibition (NCI-H1975 [27]) was “Active” and the Activity (NCI-H1975 [28]) was “Dose-dependent-effect”. The Activity (NCI-H1975 [29]) was “Dose-dependent-effect”.
With `CC(=O)Nc1nc2cc(-c3ccc4ncn(Cc5ccccc5)c(=O)c4c3)ccc2[nH]1` the selectivity ratio [2] was 1.83, the IC50 (NCI-H1975 [1]) was 1.02 µM and the IC50 at 72 h [3] was 1.87 µM. For the same compound, the IC50 (PC-9) was 0.91 µM and the IC50 (A549) was 0.83 µM.
`O=C(NCC1CC1)c1cccc(-c2ccc3sc(NC(=O)c4ccc(F)cc4)nc3c2)c1` gave an IC50 (NCI-H1975 [1]) of over 40 µM, an IC50 at 72 h [3] of over 80 µM and an IC50 (PC-9) of 11.9 µM. For the same compound, the IC50 (A549) was over 40 µM.
With `Cc1ccc(CNC(=O)c2cccc(-c3ccc4sc(NC(=O)C(C)(C)C)nc4c3)c2)cc1` the selectivity ratio [2] was over 6.43, the IC50 (NCI-H1975 [1]) was 12.4 µM and the IC50 at 72 h [3] was over 80 µM. It also gave an IC50 (PC-9) of over 40 µM and an IC50 (A549) of over 40 µM.
